# Source: patent publication US8426420B2, “Heterocyclic pyrazole-carboxamidesas P2Y12 antagonists” (Sanofi, priority 2007, dated 2013)
# Target: human P2Y12 receptor (Homo sapiens, UniProt Q9H244)
# Experiment: Human P2Y12 recombinant cell membrane binding assay with 33P 2MeS-ADP
# Details: competition against 33P 2MeS-ADP, membranes of CHO cells with recombinant human P2Y12 receptor
# Description: The ability of the compounds of the formula Ito inhibit the P2Y12 receptor can be assessed by determining the concentration of the compound of the formula I that binds to the human P2Y12 Recombinant Cell Membrane Binding Assay with 33P 2MeS-ADP.
# Human P2Y12 Recombinant Cell Membrane Binding Assay
# The ability of a test compound to bind to the P2Y12 receptor was evaluated in a recombinant cell membrane binding assay. In this competitive binding assay, the test compound competed against a radiolabeled agonist for binding to the P2Y12 receptor, expressed on the cell membrane. Inhibition of binding of the labeled material was measured and correlated to the amount and potency of the test compound. This binding assay is a modification of the procedure described by Takasaki, J. et. al, Mol. Pharmacol., 2001, Vol. 60, pg. 432. A membrane preparation was prepared from Chinese Hamster Ovary (CHO) cells with recombinant expression of the human P2Y12 receptor according to standard procedures as a source of P2Y12.
# To a 96-well microtiterplate the following were added: a) 24 μl of assay buffer (10 mM HEPES, 138 mM NaCl, […] KCl, 12 mM NaHCO3, 1 mM EDTA-Na, 0.1% BSA, pH 7.4) b) 1 μL compound in DMSO c) 50 μL P2Y12 CHO membrane (20 μg/ml) and after 15 min at RT d) 25 μL of 1.61 nM 33P 2MeS-ADP (Perkin Elmer NEN custom synthesis, specific activity ˜2100 Ci/mmol) made in assay buffer.
# After 20 min incubation at RT samples were transferred to 96-well microtiter filterplates (Millipore HTS GF/B), pre-wetted for 20 min with 300 μL of stop buffer (10 mM HEPES, 138 mM NaCl pH 7.4) and then filtered through completely with a Millipore plate vacuum. Next, wells were washed four times with 400 μl/well of stop buffer on a plate vacuum. The plate was disassembled and allowed to air dry overnight with the filter side up over night. The filter plates were snapped into adapter plates and 0.1 mL of Microscint 20 Scintillation Fluid (Perkin Elmer #6013621) was added to each well. The top of the filterplate was sealed with plastic plate covers. The sealed filterplate were incubated 2 hours at RT. A Microbeta Scintillation Counter was used to measure counts.
# Compounds were diluted as 10 mM DMSO stocks and tested in a four-point, five-fold dilution series run in triplicate beginning at 10 μM, final concentration. Data were analyzed using a four-parameter curve fit with a fixed minimum and maximum experimentally defined as the average positive and negative controls on each plate.
# human P2Y12 receptor, sequence (Q9H244 whole entry): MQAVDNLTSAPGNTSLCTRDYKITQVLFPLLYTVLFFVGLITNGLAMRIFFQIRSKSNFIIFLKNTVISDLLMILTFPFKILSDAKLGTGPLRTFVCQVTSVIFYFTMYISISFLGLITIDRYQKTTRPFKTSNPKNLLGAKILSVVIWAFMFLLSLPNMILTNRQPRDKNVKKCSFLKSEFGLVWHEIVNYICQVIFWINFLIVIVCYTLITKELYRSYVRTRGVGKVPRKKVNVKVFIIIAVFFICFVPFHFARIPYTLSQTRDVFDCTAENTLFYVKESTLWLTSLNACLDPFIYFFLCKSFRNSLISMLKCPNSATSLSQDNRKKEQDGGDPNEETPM
row,SMILES,IC50 [nM]
1,"CCOC(=O)N1CCN(C(=O)[C@H](CCC(=O)OC2CCCC2)NC(=O)c2cc(OCC(=O)N3CCC[C@H]3C(=O)NC3CCC3)n(-c3ccccc3)n2)CC1 [Example 130, 4-[(S)-2-({5-[2-((S)-2-Cyclobutylcarbamoyl-pyrrolidin-1-yl)-2-oxo-ethoxy]-1-phenyl-1H-pyrazole-3-carbonyl}-amino)-4-cyclopentyloxycarbonyl-butyryl]-piperazine-1-carboxylic acid ethyl ester]",59
2,"CCCCOC(=O)N1CCN(C(=O)[C@H](CC2CC2)NC(=O)c2cc(OCC(=O)N3CCC[C@H]3C(=O)NC3CCC3)n(-c3ccccc3)n2)CC1 [Example 234, 4-[(S)-2-({5-[2-((S)-2-Cyclobutylcarbamoyl-pyrrolidin-1-yl)-2-oxo-ethoxy]-1-phenyl-1H-pyrazole-3-carbonyl}-amino)-3-cyclopropyl-propionyl]-piperazine-1-carboxylic acid butyl ester]",85
3,"CCCCOC(=O)N1CCN(C(=O)[C@H](C)NC(=O)c2cc(OCC(=O)N3CCC[C@H]3C(=O)NC3CCC3)n(-c3ccccc3)n2)CC1 [Example 186, 4-[(S)-2-({5-[2-((S)-2-Cyclobutylcarbamoyl-pyrrolidin-1-yl)-2-oxo-ethoxy]-1-phenyl-1H-pyrazole-3-carbonyl}-amino)-propionyl]-piperazine-1-carboxylic acid butyl ester]",16
4,"CCOC(=O)C(=O)NC[C@H](NC(=O)c1cc(OCC(=O)N2CCC[C@H]2C(=O)NC2CCC2)n(-c2ccccc2)n1)C(=O)N1CCN(C(=O)OCC)CC1 [Example 90, 4-[(S)-2-({5-[2-((S)-2-Cyclobutylcarbamoyl-pyrrolidin-1-yl)-2-oxo-ethoxy]-1-phenyl-1H-pyrazole-3-carbonyl}-amino)-3-(ethoxyoxalyl-amino)-propionyl]-piperazine-1-carboxylic acid ethyl ester]",35
5,"CCCOC(=O)N1CCN(C(=O)C(NC(=O)c2cc(OCC(=O)N3CCC[C@H]3C(=O)NC3CCC3)n(-c3ccccc3)n2)C(C)F)CC1 (stereo partly drawn) [Example 175, 4-[2-({5-[2-((S)-2-Cyclobutylcarbamoyl-pyrrolidin-1-yl)-2-oxo-ethoxy]-1-phenyl-1H-pyrazole-3-carbonyl}-amino)-3-fluoro-butyryl]-piperazine-1-carboxylic acid propyl ester]",179
6,"CCOC(=O)N1CCN(C(=O)[C@H](CCC(=O)O)NC(=O)c2cc(OCC(=O)N3CCC[C@H]3C(=O)NCCSC)n(-c3ccccc3)n2)CC1 [Example 3, 4-{(S)-4-Carboxy-2-[(5-{2-[(S)-2-(2-methylsulfanyl-ethylcarbamoyl)-pyrrolidin-1-yl]-2-oxo-ethoxy}-1-phenyl-1H-pyrazole-3-carbonyl)-amino]-butyryl}-piperazine-1-carboxylic acid ethyl ester]",183
7,"CCOC(=O)N1CCN(C(=O)[C@H](CCNC(=O)C(C)(C)C)NC(=O)c2cc(OCC(=O)N3CCC[C@H]3C(=O)NC3CCC3)n(-c3ccccc3)n2)CC1 [Example 99, 4-[(S)-2-({5-[2-((S)-2-Cyclobutylcarbamoyl-pyrrolidin-1-yl)-2-oxo-ethoxy]-1-phenyl-1H-pyrazole-3-carbonyl}-amino)-4-(2,2-dimethyl-propionylamino)-butyryl]-piperazine-1-carboxylic acid ethyl ester]",158
8,"CCCCOC(=O)N1CCN(C(=O)C(NC(=O)c2cc(OCC(=O)N3CCC[C@H]3C(=O)NC3CCC3)n(-c3ccccc3)n2)C(C)F)CC1 (stereo partly drawn) [Example 176, 4-[2-({5-[2-((S)-2-Cyclobutylcarbamoyl-pyrrolidin-1-yl)-2-oxo-ethoxy]-1-phenyl-1H-pyrazole-3-carbonyl}-amino)-3-fluoro-butyryl]-piperazine-1-carboxylic acid butyl ester]",45
9,"CCOC(=O)N1CCN(C(=O)[C@H](CC(=O)O)NC(=O)c2cc(OCC(=O)N3CCC[C@H]3C(=O)NCC(F)F)n(-c3cccc(F)c3)n2)CC1 [Example 79, 4-((S)-3-Carboxy-2-{[5-[2-((S)-2-(2,2-difluoroethylcarbamoyl)-pyrrolidin-1-yl)-2-oxo-ethoxy]-1-(3-fluoro-phenyl)-1H-pyrazole-3-carbonyl]-amino}-propionyl)-piperazine-1-carboxylic acid ethyl ester]",145
10,"CCOC(=O)N1CCN(C(=O)[C@H](CCNS(C)(=O)=O)NC(=O)c2cc(OCC(=O)N3CCC[C@H]3C(=O)NC3CCC3)n(-c3ccccc3)n2)CC1 [Example 94, 4-[(S)-2-({5-[2-((S)-2-Cyclobutylcarbamoyl-pyrrolidin-1-yl)-2-oxo-ethoxy]-1-phenyl-1H-pyrazole-3-carbonyl}-amino)-4-methanesulfonylamino-butyryl]-piperazine-1-carboxylic acid ethyl ester]",59
11,"CCOC(=O)N1CCN(C(=O)[C@H](CCCCOC(C)=O)NC(=O)c2cc(OCC(=O)N3CCC[C@H]3C(=O)NC3CCC3)n(-c3ccccc3)n2)CC1 [Example 237, 4-[(S)-6-Acetoxy-2-({5-[2-((S)-2-cyclobutylcarbamoyl-pyrrolidin-1-yl)-2-oxo-ethoxy]-1-phenyl-1H-pyrazole-3-carbonyl}-amino)-hexanoyl]-piperazine-1-carboxylic acid ethyl ester]",30
12,"CCCCOC(=O)N1CCN(C(=O)[C@H](CCCOC(=O)C(C)C)NC(=O)c2cc(OCC(=O)N3CCC[C@H]3C(=O)NC3CCC3)n(-c3ccccc3)n2)CC1 [Example 212, 4-[(S)-2-({5-[2-((S)-2-Cyclobutylcarbamoyl-pyrrolidin-1-yl)-2-oxo-ethoxy]-1-phenyl-1H-pyrazole-3-carbonyl}-amino)-5-isobutyryloxy-pentanoyl]-piperazine-1-carboxylic acid butyl ester]",17
13,"CCOC(=O)N1CCN(C(=O)[C@H](CC(=O)O)NC(=O)c2cc(OCC(=O)N3CCC[C@H]3C(=O)NCC(F)F)n(-c3ccccc3)n2)CC1 [Example 57, 4-{(S)-3-Carboxy-2-[(5-{2-[(S)-2-(2,2-difluoro-ethylcarbamoyl)-pyrrolidin-1-yl]-2-oxo-ethoxy}-1-phenyl-1H-pyrazole-3-carbonyl)-amino]-propionyl}-piperazine-1-carboxylic acid ethyl ester]",183
14,"CCOC(=O)N1CCN(C(=O)[C@H](CCC(=O)OC(C)C)NC(=O)c2cc(OCC(=O)N3CCC[C@H]3C(=O)NC3CCC3)n(-c3ccccc3)n2)CC1 [Example 137, 4-[(S)-2-({5-[2-((S)-2-Cyclobutylcarbamoyl-pyrrolidin-1-yl)-2-oxo-ethoxy]-1-phenyl-1H-pyrazole-3-carbonyl}-amino)-4-isopropoxycarbonyl-butyryl]-piperazine-1-carboxylic acid ethyl ester]",148
15,"CCOC(=O)N1CCN(C(=O)[C@H](CCC(=O)OCc2ccccc2)NC(=O)c2cc(OCC(=O)N3CCC[C@H]3C(=O)NC3CCC3)n(-c3ccccc3)n2)CC1 [Example 132, 4-[(S)-2-({5-[2-((S)-2-Cyclobutylcarbamoyl-pyrrolidin-1-yl)-2-oxo-ethoxy]-1-phenyl-1H-pyrazole-3-carbonyl}-amino)-4-benzyloxycarbonyl-butyryl]-piperazine-1-carboxylic acid ethyl ester]",25
